Results taken from ChEMBL document CHEMBL1140598, “A review of anti-infective and anti-inflammatory chalcones” (Eur J Med Chem, 2007).
Values after ≈ are worked out from the molar mass of the structure shown.

Key:
[1] = system: Plasmodium falciparum; experiment: Antimalarial activity against Plasmodium falciparum; assay type: functional, organism-based
[2] = system: Mycobacterium tuberculosis; experiment: Antibacterial activity against Mycobacterium tuberculosis H37Rv at 12.5 ug/mL; assay type: functional
[3] = system: Leishmania braziliensis; experiment: Growth inhibition of Leishmania braziliensis promastigotes; assay type: functional, organism-based
[4] = system: Plasmodium falciparum; experiment: Inhibition of ring to schizont stage maturation in Plasmodium falciparum NF54 at 2 ug/mL; assay type: functional
[5] = molecular target: Protease (Human immunodeficiency virus 1) (UniProt Q9YQ12); experiment: Inhibition of HIV1 protease at 50 ug/mL
Sequence of Protease (Human immunodeficiency virus 1) (Q9YQ12 as listed by the source): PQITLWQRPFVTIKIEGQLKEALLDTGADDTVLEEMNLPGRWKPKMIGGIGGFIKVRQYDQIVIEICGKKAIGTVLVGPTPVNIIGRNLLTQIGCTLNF

[6] = system: Cladosporium cladosporioides; experiment: Fungicidal activity against Cladosporium cladosporioides; assay type: functional
[7] = system: Colletotrichum truncatum; experiment: Antifungal activity against Colletotrichum capsici; assay type: functional
[8] = system: Fusarium oxysporum; experiment: Antifungal activity against Fusarium oxysporum; assay type: functional
[9] = system: Rhizoctonia solani; experiment: Antifungal activity against Rhizoctonia solani; assay type: functional
[10] = system: Colletotrichum truncatum; experiment: Antifungal activity against Colletotrichum truncatum CE175; assay type: functional, Glomerella truncata
[11] = system: Diaporthe longicolla; experiment: Antifungal activity against Phomopsis longicolla Hobbs CE117; assay type: functional
[12] = system: Neutrophil; experiment: Inhibition of fMLP/CB-stimulated release of lysozyme in rat neutrophils; assay type: functional, cell-based
[13] = system: Neutrophil; experiment: Inhibition of fMLP/CB-stimulated release of beta-glucuronidase in rat neutrophils; assay type: functional, cell-based
[14] = system: Plasmodium falciparum; experiment: Antiplasmodial activity against chloroquine-sensitive Plasmodium falciparum Dd2 by [3H]hypoxanthine incorporation; assay type: functional, organism-based
[15] = Inhibition of Leishmania donovani solubilized fumarate reductase
[16] = system: Plasmodium falciparum; experiment: Antiplasmodial activity against chloroquine-sensitive Plasmodium falciparum 3D7 by [3H]hypoxanthine incorporation; assay type: functional, organism-based
[17] = system: Leishmania major; experiment: Growth inhibition of Leishmania major promastigotes assessed as [3H]thymidine incorporation; assay type: functional, organism-based
[18] = system: Leishmania donovani; experiment: Inhibition of Leishmania donovani amastigotes in human monocyte-derived macrophages; assay type: functional, organism-based
[19] = system: Plasmodium falciparum; experiment: Antiplasmodial activity against chloroquine-sensitive Plasmodium falciparum D6; assay type: functional, organism-based
[20] = system: Plasmodium falciparum; experiment: Antiplasmodial activity against chloroquine-resistant Plasmodium falciparum W2; assay type: functional, organism-based
[21] = system: Plasmodium falciparum; experiment: Antimalarial activity against chloroquine-resistant Plasmodium falciparum K1 by [3H]hypoxanthine incorporation; assay type: functional, organism-based
[22] = system: Leishmania donovani; experiment: Antileishmanial activity against Leishmania donovani amastigotes in mouse macrophages at 50 ug/mL; assay type: functional
[23] = system: Leishmania donovani; experiment: Antileishmanial activity against Leishmania donovani promastigotes at 50 ug/mL; assay type: functional
[24] = system: Trypanosoma cruzi; experiment: Growth inhibition of Trypanosoma cruzi epimastigotes; assay type: functional, organism-based
[25] = system: RAW; experiment: Inhibition of nitric oxide production in LPS-stimulated mouse RAW 264.7 cells; assay type: functional, cell-based
[26] = system: Plasmodium falciparum; experiment: Antiplasmodial activity against chloroquine-sensitive Plasmodium falciparum poW by [3H]hypoxanthine incorporation; assay type: functional, organism-based
[27] = system: Plasmodium falciparum; experiment: Antiplasmodial activity against multiresistant Plasmodium falciparum Dd2 by [3H]hypoxanthine incorporation; assay type: functional, organism-based
[28] = system: Human immunodeficiency virus 1; experiment: Antiviral activity against HIV1 3B assessed as inhibition of p24 antigen production in human PBMCs; assay type: functional, organism-based; settings: Human immunodeficiency virus 1, 3B
[29] = system: Human immunodeficiency virus 1; experiment: Inhibition of HIV1 reverse transcriptase production in human C8166 lymphocytes; assay type: functional, organism-based; settings: Human immunodeficiency virus 1, C8166
[30] = system: Human immunodeficiency virus 1; experiment: Inhibition of HIV1 p24 antigen production in human C8166 lymphocytes; assay type: functional, organism-based; settings: Human immunodeficiency virus 1, C8166
[31] = system: RAW; experiment: Inhibition of prostaglandin E2 production in LPS-stimulated mouse RAW 264.7 cells at 10 uM; assay type: functional
[32] = system: RAW; experiment: Inhibition of nitric oxide production in LPS-stimulated mouse RAW 264.7 cells at 10 uM; assay type: functional
[33] = system: Staphylococcus aureus; experiment: Antibacterial activity against Staphylococcus aureus; assay type: functional, organism-based
[34] = system: Staphylococcus haemolyticus; experiment: Antibacterial activity against Staphylococcus haemolyticus; assay type: functional
[35] = system: Staphylococcus epidermidis; experiment: Antibacterial activity against Staphylococcus epidermidis; assay type: functional
[36] = system: Neutrophil; experiment: Superoxide radical scavenging activity in stimulated human neutrophils; assay type: functional, cell-based
[37] = Superoxide radical scavenging activity by hypoxanthine / xanthine oxidase system; assay type: functional

COc1cc(/C=C/C(=O)c2ccc(NC(=O)Nc3ccc(Cl)cc3)cc2)cc(OC)c1OC
IC50 [1]: 1.76 µM

O=C(/C=C/c1cccc(Cl)c1)c1ccccc1O
inhibition at 12.5 µg/mL [2]: 90%

O=C(/C=C/c1ccccc1)c1ccccc1 [CHALCONE]
IC50 [3]: 13.7 µM

CC(C)=CCc1cc(C(=O)/C=C/c2ccc(O)cc2)c(O)c(CC=C(C)C)c1O [MEDICAGENIN]
inhibition at 2 µg/mL [4]: 100%

O=C(/C=C/c1ccc(O)c(O)c1)c1ccc(O)cc1O
inhibition [5]: 50%

CC1(C)CCc2c(O)ccc(C(=O)/C=C/c3ccc(O)cc3)c2O1
MIC [6]: 2 µg

O=C(/C(Br)=C(\Br)c1cccc([N+](=O)[O-])c1)c1cccc([N+](=O)[O-])c1
MIC [7]: 6.25 µg/mL (≈ 13.7 µM)
MIC [8]: 6.25 µg/mL (≈ 13.7 µM)
MIC [9]: 6.25 µg/mL (≈ 13.7 µM)

O=C(/C=C/c1ccccc1)c1ccccc1O [2'-HYDROXYCHALCONE]
inhibition at 12.5 µg/mL [2]: 61%

O=C(Nc1ccc(Cl)cc1)Nc1ccc(C(=O)/C=C/c2ccc(Cl)cc2Cl)cc1
IC50 [1]: 1.76 µM

Cc1ccc(/C=C/C(=O)c2ccc(C)cc2)cc1 [4,4'-DIMETHYLCHALCONE]
MIC [7]: 6.25 µg/mL (≈ 26.4 µM)

O=C(/C=C/c1ccccc1)c1ccc(O)cc1O [2',4'-DIHYDROXYCHALCONE]
MIC [10]: 6.25 µg/mL (≈ 26 µM)
MIC [11]: 6.25 µg/mL (≈ 26 µM)

O=C(/C=C/c1ccccc1O)c1ccccc1O
IC50 [12]: 1.4 µM
IC50 [13]: 1.6 µM

CCCCOc1ccc(C(=O)/C=C/c2ccc(OC)cc2OC)cc1
IC50 [14]: 14.8 µM
IC50 [15]: 118 µM
IC50 [16]: 8.9 µM

O=C(/C=C/c1ccccc1)c1ccc(Cl)cc1O
inhibition at 12.5 µg/mL [2]: 89%

COc1ccc(/C=C/C(=O)c2ccc(O)cc2)c(OC)c1
IC50 [17]: 4 µM
IC50 [18]: 0.65 µM

COc1cc(/C=C/C(=O)c2ccc(O)cc2O)ccc1O [HOMOBUTEIN]
IC50 [19]: 10.3 µM
IC50 [20]: 10.3 µM

COc1ccc(C(=O)/C=C/c2ccc(C(F)(F)F)cc2)c(OC)c1
IC50 [21]: 6.5 µM

CC1(C)C=Cc2c(ccc(C(=O)/C=C/c3ccc(O)cc3)c2O)O1
Activity [22]: 74%
Activity [23]: 84%

O=C(/C=C/c1ccc(Cl)cc1)c1ccccc1 [4-CHLORO CHALCONE]
IC50 [24]: 21.9 µM

COc1ccc(OC)c(C(=O)/C=C/c2ccc(N(C)C)cc2)c1
IC50 [25]: 0.7 µM

COc1ccc(C(=O)/C=C/c2ccc(C(F)(F)F)cc2)c(OC)c1OC
IC50 [21]: 6.5 µM

COc1ccc(C(=O)/C=C/c2ccccc2)c(O)c1
inhibition at 12.5 µg/mL [2]: 78%

COc1cc(O)c(CC=C(C)C)c(O)c1C(=O)/C=C/c1ccc(O)cc1 [XANTHOHUMOL]
IC50 [26]: 8.2 µM
IC50 [27]: 24 µM
EC50 [28]: 20.7 µg/mL (≈ 58.5 µM)
EC50 [29]: 0.5 µg/mL (≈ 1.41 µM)
EC50 [30]: 1.28 µg/mL (≈ 3.61 µM)

C=CCOc1ccc(C(=O)/C=C/c2ccc(OC)cc2OC)cc1
IC50 [17]: 4 µM
IC50 [15]: 153 µM
IC50 [18]: 0.65 µM

COc1cc(OC)c(/C=C/C(=O)c2ccccc2C(F)(F)F)c(OC)c1
inhibition at 10 µM [31]: 76.3%
inhibition at 10 µM [32]: 76.3%

O=C(/C=C/c1ccc(O)cc1)c1ccc(O)cc1O [ISOLIQUIRITIGENIN]
MIC [33]: 250 µg/mL (≈ 976 µM)
MIC [34]: 250 µg/mL (≈ 976 µM)
MIC [35]: 250 µg/mL (≈ 976 µM)

COc1ccc(C(=O)/C=C/c2ccc(N(C)C)cc2)cc1OC
IC50 [36]: 0.1 µM
IC50 [37]: 0.3 µM
